What was measured:
[1] = tested on: clarithromycin-resistant strain; experiment: MIC of clarithromycin for the clarithromycin-resistant strain; type: cell-based; details: Helicobacter pylori
[2] = tested on: Clarithromycin-resistant Helicobacter pylori bacteria; experiment: in vitro eradication activity on resistant strain, disk on medium; type: cell-based; details: twice repeated tests
Text: Clarithromycin-resistant Helicobacter pylori bacteria were applied on a medium (red), and a sample was made in the form of a disk and placed on the medium to measure an eradicating effect. At this time, if the red color disappeared around the disk, it means that there was the eradicating effect.

[3] = tested on: H. pylori, 187 culture-positive clinical strains; experiment: antibiotic resistant rate from in vitro MIC on clinical strains; type: cell-based, Helicobacter pylori; details: based on MIC 1 μg/mL
Description: In virto MIC for non-absorbable antibiotic candidates (gentamicin, netilmicin, tobramycin, and amikacin) to be used as novel therapeutic agents was measured by making complexes with antibiotics (amoxicillin, clarithromycin, metronidazole, levofloxacin, and tetracyclin) that were actually used for Helicobacter eradicating treatment in clinical trials and smectite, and MIC50 and MIC90 were identified. For this end, 187 culture-positive clinical strains obtained from 1,265 patient specimens were used.

Row | Compound | MIC [1] | clear zone around disk (eradication activity) [2] | resistant rate of H. pylori [3]
1 | CC[C@H]1OC(=O)[C@H](C)[C@@H](O[C@H]2C[C@@](C)(OC)[C@@H](O)[C@H](C)O2)[C@H](C)[C@@H](O[C@@H]2O[C@H](C)C[C@H](N(C)C)[C@H]2O)[C@](C)(OC)C[C@@H](C)C(=O)[C@H](C)[C@@H](O)[C@]1(C)O [clarithromycin] | 48 µg/mL | no clear zone | 
2 | gentamicin |  |  | 2.78%

— patent US11890295B2, “Helicobacter pylori eradication method including step for orally administering composition including complex of non-absorbable antibiotic and clay mineral to subject” (KOREA INSTITUTE OF GEOSCIENCE AND MINERAL RESOURCES, priority 2018, dated 2024)
